Patent publication US9770446B2, “Piperidine urea derivatives” (MERCK PATENT GMBH, priority 2013, dated 2017)

What was measured:
[1] = system: Tankyrase; test: Cellular inhibition of Tankyrase: Axin2 level in DLD1 cells (Luminex); format: cell-based; details: 24 hours, Axin2 increase, read-out: EC50 [M] TNKS cellular assay
Method: Measurement of Cellular Inhibition of Tankyrase
Since Tankyrases have been described to modulate cellular level of Axin2 (Huang et al., 2009; Nature) the increase of Axin2 level is used as read-out for determination of cellular inhibition of Tankyrases in a Luminex based assay.
Cells of the colon carcinoma cell line DLD1 are plated in 96 well plates with 1.5×10^4 cells per well. Next day, cells are treated with a serial dilution of test compound in seven steps as triplicates with a final DMSO concentration of 0.3%. After 24 hours, cells are lysed in lysis buffer (20 mM Tris/HCl pH 8.0, 150 mM NaCl, 1% NP40, 10% Glycerol) and lysates are cleared by centrifugation through a 96 well filter plate (0.65 μm). Axin2 protein is isolated from cell lysates by incubation with a monoclonal anti-Axin2 antibody (R&D Systems #MAB6078) that is bound to fluorescent carboxybeads. Then, bound Axin2 is specifically detected with a polyclonal anti-Axin2 antibody (Cell Signaling #2151) and an appropriate PE-fluorescent secondary antibody. The amount of isolated Axin2 protein is determined in a Luminex^200 machine (Luminex Corporation) according to the manufacturer's instruction by counting 100 events per well. Inhibition of Tankyrase by test compounds results in higher levels of Axin2 which directly correlates with an increase of detectable fluorescence. As controls cells are treated with solvent alone (neutral control) and with a Tankyrase reference inhibitor IWR-2 (3E-06 M) which refers as control for maximum increase of Axin2. For analysis, the obtained data are normalized against the untreated solvent control and fitted for determination of the EC50 values using the Assay Explorer software (Accelrys).

[2] = target: T1, GST-tagged Tnks-1 (1023-1327 aa) (Homo sapiens, UniProt O95271); test: TNKS1 activity ELISA (autoparsylation assay); format: biochemical
T1 construct: GST-tagged Tnks-1 (1023-1327 aa, prepared in-house); made in house
T1 sequence (O95271 1023-1327): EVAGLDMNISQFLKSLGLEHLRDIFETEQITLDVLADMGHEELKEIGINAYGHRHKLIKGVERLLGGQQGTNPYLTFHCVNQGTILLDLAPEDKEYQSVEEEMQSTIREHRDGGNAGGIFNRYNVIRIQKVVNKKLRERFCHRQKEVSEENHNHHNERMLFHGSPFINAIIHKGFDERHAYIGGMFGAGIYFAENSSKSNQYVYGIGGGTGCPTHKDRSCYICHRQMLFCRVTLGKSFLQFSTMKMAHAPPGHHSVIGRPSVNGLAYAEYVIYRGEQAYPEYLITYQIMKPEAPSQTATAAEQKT
Method: (§1) Description of the TNKS1 and TNKS2 ELISA Assay
(§2) Biochemical Activity Testing of TNKS 1 and 2: Activity ELISA (Autoparsylation Assay)
(§3) For analysis of autoparsylation activity of TNKS 1 and 2 an activity ELISA iss performed: In the first step GST tagged TNKS is captured on a Glutathione coated plate. Then the activity assay with biotinylated NAD is performed in the absence/presence of the compounds. During the enzymatic reaction GST tagged TNKS transfers biotinylated ADP-ribose to itself from biotinylated NAD as co-substrate. For the detection streptavidin-HRP conjugate is added that binds to the biotinylated TNKS and is thereby captured to the plates. The amount of biotinylated resp. autoparsylated TNKS is detected with a luminescence substrate for HRP. The level of the luminescence signal correlates directly with the amount of autoparsylated TNKS and therefore with activity of TNKS.
(§4) The activity ELISA is performed in 384 well Glutathione coated microtiter plates (Express capture Glutathione coated plate, Biocat, Heidelberg, Germany). The plates are pre-equilibrated with PBS. Then the plates are incubated with 50 μl 20 ng/well GST-tagged Tnks-1 (1023-1327 aa, prepared in-house), respectively GST-tagged Tnks-2 (873-1166 aa, prepared in-house) in assay buffer (50 mM HEPES, 4 mM Mg-chloride, 0.05% Pluronic F-68, 2 mM DTT, pH 7.7) overnight at 4° C. The plates are washed 3 times with PBS-Tween-20. The wells are blocked by incubation at room temperature for 20 minutes with 50 μl blocking buffer (PBS, 0.05% Tween-20, 0.5% BSA). Afterwards the plates are washed 3 times with PBS-Tween-20. The enzymatic reaction is performed in 50 μl reaction solution (50 mM HEPES, 4 mM Mg-chloride, 0.05% Pluronic F-68, 1.4 mM DTT, 0.5% DMSO, pH 7.7) with 10 μM bio-NAD (Biolog, Life science Inst., Bremen, Germany) as co-substrate in the absence or presence of the test compound (10 dilution concentrations) for 1 hour at 30° C. The reaction is stopped by 3 times washing with PBS-Tween20. For the detection 50 μl of 20 ng/μl Streptavidin, HRP conjugate (MoBiTec, Göttingen, Germany) in PBS/0.05% Tween-20/0.01% BSA are added and the plates are incubated for 30 minutes at room temperature. After three times washing with PBS-Tween-20 50 μl of SuperSignal ELISA Femto Maximum sensitivity substrate solution (ThermoFisherScientific (Pierce), Bonn, Germany) are added. Following a 1 minute incubation at room temperature luminescence signals are measured with an Envision multimode reader (Perkin Elmer LAS Germany GmbH) at 700 nm. The full value used is the inhibitor-free reaction. The pharmacological zero value used is XAV-939 (Tocris) in a final concentration of 5 μM. The inhibitory values (IC50) are determined using either the program Symyx Assay Explorer® or Condosseo® from GeneData.

[3] = target: T2, GST-tagged Tnks-2 (873-1166 aa) (Homo sapiens, UniProt Q9H2K2); test: TNKS2 activity ELISA (autoparsylation assay); format: biochemical
T2 construct: GST-tagged Tnks-2 (873-1166 aa, prepared in-house); made in house
T2 sequence (Q9H2K2 873-1166): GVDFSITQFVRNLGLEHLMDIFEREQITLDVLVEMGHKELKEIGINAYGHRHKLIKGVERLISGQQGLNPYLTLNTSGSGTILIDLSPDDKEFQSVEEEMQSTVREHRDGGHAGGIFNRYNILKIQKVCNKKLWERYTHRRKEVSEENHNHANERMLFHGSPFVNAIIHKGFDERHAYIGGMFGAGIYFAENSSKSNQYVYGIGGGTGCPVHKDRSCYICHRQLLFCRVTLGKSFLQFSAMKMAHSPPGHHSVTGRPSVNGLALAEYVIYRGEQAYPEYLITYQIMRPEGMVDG
Method: as §1, §2, §3, §4

[4] = target: T3, GST-tagged Tankyrase-1 (1023-1327 aa) (Homo sapiens, UniProt O95271); test: Tankyrase 1 autoparsylation HTRF enzyme assay; format: biochemical; details: read-out: IC50 TNKS1 enzyme assay
T3 construct: GST-tagged Tankyrase-1 (1023-1327 aa)
T3 sequence (O95271 1023-1327): as the sequence (O95271 1023-1327) above
Method: (§5) Biochemical activity testing of Tankyrase 1 and 2: Autoparsylation assay
(§6) The autoparsylation assay is run in two steps: the enzymatic reaction in which GST-tagged Tankyrase-1, resp Tankyrase-2 transferred biotinylated ADP-ribose to itself from biotinylated NAD as co-substrate and the detection reaction where a time resolved FRET between cryptate labelled anti-GST bound to the GST tag of the enzyme and Xlent® labelled-streptavidin bound the biotin-parsylation residue is analysed. The autoparsylation activity was detectable directly via the increase in HTRF signal.
(§7) The autoparsylation assay is performed as 384-well HTRF® (Cisbio, Codolet, France) assay format in Greiner low volume nb 384-well microtiter plates and is used for high throughput screen. 250 nM GST-tagged Tankyrase-1 (1023-1327 aa), respectively about 250 nM GST-tagged Tankyrase-2 (873-1166 aa) and 5 μM bio-NAD (Biolog, Life science Inst., Bremen, Germany) as co-substrate are incubated in a total volume of 5 μl (50 mM HEPES, 4 mM Mg-chloride, 0.05% Pluronic F-68, 1.4 mM DTT, 0.5% DMSO, pH 7.7) in the absence or presence of the test compound (10 dilution concentrations) for 90 min at 30° C. The reaction is stopped by the addition of 1 μl 50 mM EDTA solution. 2 μl of the detection solution (1.6 μM SA-Xlent® (Cisbio, Codolet, France), 7.4 nM Anti-GST-K® (Eu-labelled anti-GST, Cisbio, Codolet, France) in 50 mM HEPES, 800 mM KF, 0.1% BSA, 20 mM EDTA, 0.1% CHAPS, pH 7.0) are added. After 1 h incubation at room temperature the HTRF is measured with an Envision multimode reader (Perkin Elmer LAS Germany GmbH) at excitation wavelength 340 nm (laser mode) and emission wavelengths 615 nm and 665 nm. The ratio of the emission signals is determined. The full value used is the inhibitor-free reaction. The pharmacological zero value used is XAV-939 (Tocris) in a final concentration of 5 μM. The inhibitory values (IC50) are determined using either the program Symyx Assay Explorer® or Condosseo® from GeneData.

[5] = target: T4, GST-tagged Tankyrase-2 (873-1166 aa) (Homo sapiens, UniProt Q9H2K2); test: Tankyrase 2 autoparsylation HTRF enzyme assay; format: biochemical; details: read-out: IC50 TNKS2 enzyme assay
T4 construct: GST-tagged Tankyrase-2 (873-1166 aa)
T4 sequence (Q9H2K2 873-1166): as the sequence (Q9H2K2 873-1166) above
Method: as §5, §6, §7

COc1ccc(N(C)C(=O)N2CCC(C(=O)c3ccc(OC)nc3)CC2)cc1 [Compound A53, N-(4-methoxyphenyl)-4-(6-methoxypyridine-3-carbonyl)-N-methyl-piperidine-1-carboxamide]
EC50 [1]: 3e-07 to 3e-06 M
IC50 [2]: < 300 nM
IC50 [3]: < 300 nM

CN(C(=O)N1CCC(C(=O)c2ccccc2)CC1)c1cccc(F)c1 [Compound A12, 4-benzoyl-piperidine-1-carboxylic acid (3-fluoro-phenyl)-methyl-amide]
IC50 [4]: 300 to 3000 nM
IC50 [5]: 300 to 3000 nM
EC50 [1]: 3e-07 to 3e-06 M
IC50 [2]: < 300 nM
IC50 [3]: < 300 nM

COc1ccc(N(C)C(=O)N2CCC(C(=O)c3ccccc3)CC2)cn1 [Compound A44, 4-benzoyl-N-(6-methoxy-3-pyridyl)-N-methyl-piperidine-1-carboxamide]
EC50 [1]: 3e-07 to 3e-06 M
IC50 [2]: < 300 nM
IC50 [3]: < 300 nM

COc1ccc(N(C)C(=O)N2CCC(C(=O)c3ccc(OC)c(C)c3)CC2)cn1 [Compound A52, 4-(4-methoxy-3-methyl-benzoyl)-N-(6-methoxy-3-pyridyl)-N-methyl-piperidine-1-carboxamide]
EC50 [1]: < 3e-07 M
IC50 [2]: < 300 nM
IC50 [3]: < 300 nM

O=C(c1cccc(F)c1)C1CCN(C(=O)N2CCc3ccccc32)CC1 [Compound A19, (2,3-dihydro-indol-1-yl)-[4-(3-fluoro-benzoyl)-piperidin-1-yl]-methanone]
IC50 [4]: 300 to 3000 nM
IC50 [5]: 300 to 3000 nM
EC50 [1]: 3e-06 to 5e-05 M
IC50 [2]: < 300 nM
IC50 [3]: < 300 nM

COc1cccc(N(C)C(=O)N2CCC(C(=O)c3ccccc3)CC2)c1 [Compound A3, 4-benzoyl-piperidine-1-carboxylic acid (3-methoxy-phenyl)-methyl-amide]
IC50 [4]: 300 to 3000 nM
IC50 [5]: 300 to 3000 nM
EC50 [1]: 3e-07 to 3e-06 M
IC50 [2]: < 300 nM
IC50 [3]: < 300 nM

O=C(c1ccc(F)cc1)C1CCN(C(=O)N2CCc3ccccc32)CC1 [Compound A20, (2,3-dihydro-indol-1-yl)-[4-(4-fluoro-benzoyl)-piperidin-1-yl]-methanone]
IC50 [4]: 300 to 3000 nM
IC50 [5]: 300 to 3000 nM
EC50 [1]: 3e-06 to 5e-05 M
IC50 [2]: < 300 nM
IC50 [3]: < 300 nM

CN(C(=O)N1CCC(C(=O)c2ccccc2)CC1)c1ccc(C#N)cc1 [Compound A11, 4-benzoyl-piperidine-1-carboxylic acid (4-cyano-phenyl)-methyl-amide]
IC50 [4]: 300 to 3000 nM
IC50 [5]: 300 to 3000 nM
EC50 [1]: 3e-07 to 3e-06 M
IC50 [2]: < 300 nM
IC50 [3]: < 300 nM

COc1ccc(N(C)C(=O)N2CCC(C(=O)c3ccc(Cl)cc3)CC2)cc1 [Compound A9, 4-(4-chloro-benzoyl)-piperidine-1-carboxylic acid (4-methoxy-phenyl)-methylamide]
IC50 [4]: < 300 nM
IC50 [5]: 300 to 3000 nM
EC50 [1]: 3e-07 to 3e-06 M
IC50 [2]: < 300 nM
IC50 [3]: < 300 nM

COc1ccc(N(C)C(=O)N2CCC(C(=O)c3ccc(OC)c(F)c3)CC2)cn1 [Compound A42, 4-(3-fluoro-4-methoxy-benzoyl)-N-(6-methoxy-3-pyridyl)-N-methyl-piperidine-1-carboxamide]
IC50 [4]: < 300 nM
IC50 [5]: 300 to 3000 nM
EC50 [1]: < 3e-07 M
IC50 [2]: < 300 nM
IC50 [3]: < 300 nM

CCn1cc(-c2ccc(C(=O)C3CCN(C(=O)N(C)c4ccc(-c5cnn(CC)c5)cc4)CC3)cc2)cn1 [Compound A57, 4-[4-(1-Ethyl-1H-pyrazol-4-yl)-benzoyl]-piperidine-1-carboxylic acid [4-(1-ethyl-1H-pyrazol-4-yl)-phenyl]-methyl-amide]
EC50 [1]: < 3e-07 M
IC50 [2]: < 300 nM
IC50 [3]: < 300 nM

COc1ccc(N(C)C(=O)N2CCC(C(=O)c3cccc(F)c3)CC2)cn1 [Compound A50, 4-(3-fluorobenzoyl)-N-(6-methoxy-3-pyridyl)-N-methyl-piperidine-1-carboxamide]
IC50 [4]: 300 to 3000 nM
IC50 [5]: 300 to 3000 nM
EC50 [1]: 3e-07 to 3e-06 M
IC50 [2]: < 300 nM
IC50 [3]: < 300 nM

CCN(C(=O)N1CCC(C(=O)c2ccc(OC)nc2)CC1)c1ccc(OC)cc1 [Compound A43, N-ethyl-N-(4-methoxyphenyl)-4-(6-methoxypyridine-3-carbonyl)piperidine-1-carboxamide]
EC50 [1]: < 3e-07 M
IC50 [2]: < 300 nM
IC50 [3]: < 300 nM

CN(C(=O)N1CCC(C(=O)c2ccc(-c3cnn(CCN4CCCC4)c3)cc2)CC1)c1ccc(-c2cnn(CCN3CCCC3)c2)cc1 [Compound A37, 4-{4-[1-(2-pyrrolidin-1-yl-ethyl)-1H-pyrazol-4-yl]-benzoyl}-piperidine-1-carboxylic acid methyl-{4-[1-(2-pyrrolidin-1-yl-ethyl)-1H-pyrazol-4-yl]-phenyl}-amide]
EC50 [1]: 3e-07 to 3e-06 M
IC50 [2]: < 300 nM
IC50 [3]: < 300 nM

CCn1cc(-c2ccc(C(=O)C3CCN(C(=O)N(C)c4ccc(OC)nc4)CC3)cc2)cn1 [Compound A48, 4-[4-(1-ethylpyrazol-4-yl)benzoyl]-N-(6-methoxy-3-pyridyl)-N-methyl-piperidine-1-carboxamide]
EC50 [1]: 3e-07 to 3e-06 M
IC50 [2]: < 300 nM
IC50 [3]: < 300 nM
